pIC50: −log10 of the molar value.
Key:
adjuvant-driven EAE = experiment: Adjuvant-driven experimental autoimmune encephalomyelitis (EAE), MOG33-55 immunization; type: in vivo, mice
Excerpt: (§1) The ability of systemic HF treatment to block IL-17 expression and associated autoimmune inflammation in vivo was examined using two distinct models of experimental autoimmune encephalomyelitis (EAE). […] The second model, a passive model of EAE induction, is initiated by the transfer of myelin proteolipid protein (PLP)-reactive T cells into lymphopenic hosts.
Adjuvant-driven EAE was induced in 8 week-old wild-type B6 mice purchased from Charles River laboratories (Kingston, N.Y.) by subcutaneous injection of […] peptide emulsified in Incomplete Freund's Adjuvant (IFA) plus 5 mg/ml heat-killed M. tuburculosis (BD Biosciences) in both dorsal flanks as described in Veldhoen et al. (Nat. Immunol. 7(11):1151-1156, 2006).
(§2) Mice were injected daily with HF (2 μg/mouse) or vehicle control (DMSO) i.p. Clinical signs of EAE were assessed according to the following score: 0, no signs of disease; 1, flaccid tail; 2, weak gait/hind limb paresis; 3, hind limb paralysis; 4, tetraplegia; 5, moribund. Cytokine production during EAE was determined either in peripheral T cells isolated from spleen or lymph nodes of mice prior to disease onset (day 6-10) or in mononuclear cells isolated from the brain and spinal cords of mice with severe disease (clinical score ≧2) between days 15-20. Briefly, splenocytes were stained for intracellular cytokines following erythrocyte lysis with ammonium chloride buffer. T cells were isolated from brain and spinal cords of mice with active EAE following perfusion with cold PBS. Minced CNS tissue was digested with liberase C1 (0.33 mg/ml, Roche Diagnostics) or collagenase D (10 mg/ml, Roche Diagnostics) at 37° C. for 30-45 minutes. Cell suspensions were passed through 70 μm cell strainers (VWR) and fractionated by 70%/30% Percoll gradient centrifugation. Mononuclear cells were collected from the interphase, washed, and used for intracellular cytokine analysis.

[1] = molecular target: T1, Prolyl-tRNA synthetase (EPRS) purified from rabbit liver (Oryctolagus cuniculus, UniProt G1T2I4); experiment: Purified EPRS, 14C-labeled proline incorporation into tRNA; type: biochemical; details: 10 μM, 4 μM, 1 μM HF
T1 construct: Prolyl-tRNA synthetase (EPRS) purified from rabbit liver; from tissue; host or cells: rabbit liver
T1 sequence (G1T2I4 1-1447): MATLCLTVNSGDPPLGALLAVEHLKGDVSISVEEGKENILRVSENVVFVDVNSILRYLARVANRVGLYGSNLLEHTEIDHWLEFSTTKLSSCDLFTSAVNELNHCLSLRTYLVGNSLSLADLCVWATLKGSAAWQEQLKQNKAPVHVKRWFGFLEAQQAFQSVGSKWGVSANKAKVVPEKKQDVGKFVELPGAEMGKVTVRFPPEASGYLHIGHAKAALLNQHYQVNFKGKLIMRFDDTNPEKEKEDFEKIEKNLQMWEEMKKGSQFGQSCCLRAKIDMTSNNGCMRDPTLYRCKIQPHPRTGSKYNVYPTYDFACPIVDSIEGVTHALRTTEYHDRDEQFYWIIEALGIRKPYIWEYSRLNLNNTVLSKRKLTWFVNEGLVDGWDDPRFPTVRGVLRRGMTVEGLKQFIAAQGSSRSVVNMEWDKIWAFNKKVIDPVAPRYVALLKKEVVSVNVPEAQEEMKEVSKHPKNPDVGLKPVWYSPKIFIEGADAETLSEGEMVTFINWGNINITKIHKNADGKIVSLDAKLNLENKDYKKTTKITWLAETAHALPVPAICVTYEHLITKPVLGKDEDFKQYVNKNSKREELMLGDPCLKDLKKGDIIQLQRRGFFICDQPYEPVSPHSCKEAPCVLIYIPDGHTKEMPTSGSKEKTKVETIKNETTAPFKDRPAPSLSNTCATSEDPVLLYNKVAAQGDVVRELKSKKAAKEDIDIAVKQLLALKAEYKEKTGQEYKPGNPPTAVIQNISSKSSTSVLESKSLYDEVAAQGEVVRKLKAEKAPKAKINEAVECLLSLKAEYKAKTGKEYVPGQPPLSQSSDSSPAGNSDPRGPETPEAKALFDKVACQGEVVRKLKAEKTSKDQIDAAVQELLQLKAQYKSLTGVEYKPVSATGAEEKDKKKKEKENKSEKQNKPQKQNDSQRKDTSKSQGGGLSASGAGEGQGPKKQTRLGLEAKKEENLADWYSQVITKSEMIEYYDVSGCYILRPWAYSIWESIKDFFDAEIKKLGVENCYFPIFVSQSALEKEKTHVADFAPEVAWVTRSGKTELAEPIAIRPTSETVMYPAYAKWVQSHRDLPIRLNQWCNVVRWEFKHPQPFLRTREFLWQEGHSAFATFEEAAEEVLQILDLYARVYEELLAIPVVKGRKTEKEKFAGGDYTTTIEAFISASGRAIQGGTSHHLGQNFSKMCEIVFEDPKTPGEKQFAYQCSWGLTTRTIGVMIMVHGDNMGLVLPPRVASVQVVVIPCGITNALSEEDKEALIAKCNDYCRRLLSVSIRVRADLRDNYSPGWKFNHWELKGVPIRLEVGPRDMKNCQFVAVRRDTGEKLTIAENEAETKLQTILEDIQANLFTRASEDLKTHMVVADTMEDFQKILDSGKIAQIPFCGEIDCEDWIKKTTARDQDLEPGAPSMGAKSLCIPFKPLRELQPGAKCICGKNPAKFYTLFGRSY
Description: Purified enzyme was incubated with 100 μg/ml bovine tRNA, 50 μM ^14C-labeled proline, 5 mM ATP, and 10 mM MgCl2 for 20 minutes. Charged tRNA was isolated by precipitation on Whatman filter paper and washing with cold 5% TCA. TCA precipitable counts were assayed by scintillation counting.

passive EAE = experiment: Passive EAE, transfer of PLP-reactive T cells; type: in vivo, mice; details: 2 μg HF daily i.p.
Excerpt: as §1
Passive EAE was induced by intravenous transfer of purified CD3^+ splenic T cells isolated from PLP TCR transgenic B10.S mice into syngeneic RAG2-deficient mice (3×10^6 cells/mouse) (Waldner et al., J. Clin. Invest. 113(7):990-997, 2004).
as §2, with “Minced CNS tissue was digested with liberase C1 (0.33 mg/ml, Roche Diagnostics) or collagenase D (10 mg/ml, Roche Diagnostics) at 37° C. for 30-45 minutes. Cell suspensions were passed through 70 μm cell strainers (VWR) and fractionated by 70%/30% Percoll gradient centrifugation. Mononuclear cells were collected from the interphase, washed, and used for intracellular cytokine analysis.” left out

[2] = system: SV-MES mesangial cells (GCN2 Thr898, eIF2alpha Ser51 phosphorylation); experiment: AAR activation in cultured fibroblastic cells, western blot; type: cell-based; details: 20 nM; 2 hours
Excerpt: Duplicate cell samples are shown. […] Activated GCN2 phosphorylates eif2alpha at Ser 51, therefore this is an expected downstream outcome of AAR activation.

[3] = system: Th17 differentiation of CD4+ CD25− T cells; details: read-out: 50% inhibition of IL-17 expressing cell (Th17) development; cited from earlier work

O=C(CC1NCCCC1O)Cn1cnc2cc(Br)c(Cl)cc2c1=O (centres unmarked) [Compound 1, 7-bromo-6-chloro-3-[3-(3-hydroxy-2-piperidinyl)-2-oxopropyl]-4(3H)-quinazolinone]
IL-17 and IFNγ expression in T cells of lymph nodes and CNS (adjuvant-driven EAE; 2 μg HF daily i.p.): impaired IL-17 production but did not affect IFNγ expression
EAE disease severity and frequency of onset (adjuvant-driven EAE; 2 μg HF daily, ˜0.1 mg/kg, i.p.): significantly reduced both the severity of adjuvant-driven EAE disease and frequency of disease onset
EAE, HF not introduced until day 10 following immunization (adjuvant-driven EAE; treatment from day 10): controls autoimmune inflammation even after inflammatory pathogenesis is evident
EAE, HF injection terminated at day 10 following immunization (adjuvant-driven EAE; treatment until day 10): exerts a protective effect that extends well beyond the time of treatment
inhibition of purified EPRS (TCA precipitable counts) [1]: directly inhibits purified mammalian EPRS
EAE disease symptoms, passive model (passive EAE): developed disease symptoms with kinetics and severity similar to control treated animals
AAR activation (GCN2 Thr898 and eIF2alpha Ser51 phosphorylation) [2]: activates the AAR
pIC50 [3]: ~8.52

Reference: patent US9284297B2, “Halofuginone analogs for inhibition of tRNA synthetases and uses thereof” (President and Fellows of Harvard College, priority 2008, dated 2016)
